# Results reported in paper PMC9969401, “Discovery of 2-(3-Benzamidopropanamido)thiazole-5-carboxylate Inhibitors of the Kinesin HSET (KIFC1) and the Development of Cellular Target Engagement Probes” (Journal of Medicinal Chemistry, 2023).
# Biological target: T1, full-length HSET (FL HSET) (Homo sapiens, UniProt Q9BW19)
# T1 construct: 5 nM full-length human N-terminal His-tag HSET; His-tag (N)
# T1 sequence (Q9BW19 1-673): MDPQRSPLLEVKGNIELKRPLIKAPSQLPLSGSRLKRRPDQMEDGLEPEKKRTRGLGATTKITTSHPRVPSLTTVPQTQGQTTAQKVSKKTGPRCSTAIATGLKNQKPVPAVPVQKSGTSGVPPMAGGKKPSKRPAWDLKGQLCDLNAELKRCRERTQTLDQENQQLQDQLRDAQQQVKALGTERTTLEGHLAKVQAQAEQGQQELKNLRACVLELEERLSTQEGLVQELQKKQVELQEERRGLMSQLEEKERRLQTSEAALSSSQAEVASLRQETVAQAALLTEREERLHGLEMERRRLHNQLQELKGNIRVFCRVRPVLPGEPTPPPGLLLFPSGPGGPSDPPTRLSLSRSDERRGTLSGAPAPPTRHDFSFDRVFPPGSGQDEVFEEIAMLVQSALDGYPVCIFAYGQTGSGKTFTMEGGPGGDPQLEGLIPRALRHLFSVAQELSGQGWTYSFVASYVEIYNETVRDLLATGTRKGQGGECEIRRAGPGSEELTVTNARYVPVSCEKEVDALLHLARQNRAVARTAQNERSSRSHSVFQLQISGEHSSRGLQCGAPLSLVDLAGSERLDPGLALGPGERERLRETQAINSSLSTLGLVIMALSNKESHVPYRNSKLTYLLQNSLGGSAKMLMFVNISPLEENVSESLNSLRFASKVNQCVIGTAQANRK
# Assay: Competitive binding fluorescence polarization assay (displacement of probe 37)
# Details: 400 nM FL HSET, 2.5 nM probe 37; read-out: IC50, displacement of FP probe 37 from FL HSET
# Method: Steady-state fluorescence polarization binding assays were performed using the fluorescence-tagged probe 37. All assays were performed in a black ProxiPlate-384 Plus plate (PerkinElmer, 6008260) in a 10 μL volume in buffer containing 20 mM HEPES pH 7.5, 200 mM NaCl, 1 mM TCEP, 10 mM MgCl2, 0.1 mM Triton X-100, and 5% glycerol (v/v). Full-length human N-terminal His-tag HSET was used, with a final concentration of 2.5 nM 37 probe. The assays were sealed and incubated in the dark at 25 °C and then the FP signal was read on an EnVision multimode plate reader (PerkinElmer Life Sciences) using excitation at 620 nm and parallel and perpendicular emissions at 688 nm. All data processing was done using Prism (GraphPad Software).
# For the competition assays, 100 nL of compound dissolved in DMSO or DMSO alone was added to create 11 pt concentration response curves between 100 and 0.001 μM final concentrations. This assay used 400 nM FL HSET, and the plate was read after 2 h of incubation in the dark at 25 °C. IC50 values were determined as for the ATPase assay using a four-parameter statistical logistic curve fit.
row,SMILES,IC50
1,"Nc1ncnc2c1ncn2[C@@H]1O[C@H](COP(=O)(O)OP(=O)(O)O)[C@@H](O)[C@H]1O [ADP, adenosine diphosphate]",400 ± 66 nM
2,"Nc1ncnc2c1ncn2[C@@H]1O[C@H](COP(=O)(O)OP(=O)(O)OP(=O)(O)O)[C@@H](O)[C@H]1O [ATP, adenosine 5′-triphosphate]",436 ± 56 nM
